Like-named read-outs stand apart in the source and are kept apart here.
Assay: Pharmacokinetics of DAPA in healthy rats (alone or co-administered with ARE), plasma by UPLC-MS/MS
Format: in vivo, Sprague Dawley (SD) rats
Details: for MRT last: read-out: MRT(0-t)
Protocol: The column temperature was maintained at 40°C. […] The sample injection volume was 2 μL. […] The ion spray voltage was set at […]. […] The source temperature was kept at 200°C. The collision gas was set at low flow rate. […] The samples were processed by the procedure described above.

[1] = CD group: healthy rats, DAPA alone, single intragastric dose 1.05 mg/kg, n = 6, mean ± SD
[2] = CDA group compared to CD group (healthy rats, with ARE versus DAPA alone)
[3] = CDA group: healthy rats, ARE 300 mg/kg intragastric once a day for 7 days + DAPA single dose 1.05 mg/kg on day 7, n = 6, mean ± SD
[4] = CDA-H group: healthy rats, ARE 900 mg/kg once a day for 7 days + DAPA single dose 1.05 mg/kg on day 7, n=6, mean ± SD
[5] = CDA-L group: healthy rats, ARE 300 mg/kg once a day for 7 days + DAPA single dose 1.05 mg/kg on day 7, n=6, mean ± SD
[6] = male, Sprague-Dawley, rat, plasma, po, 1.05 mg/kg, CD group: healthy rats, DAPA alone, single intragastric dose 1.05 mg/kg, n = 6, mean ± SD
[7] = male, Sprague-Dawley, rat, plasma, po, 1.05 mg/kg, CDA-H group: healthy rats, ARE 900 mg/kg once a day for 7 days + DAPA single dose 1.05 mg/kg on day 7, n=6, mean ± SD
[8] = male, Sprague-Dawley, rat, plasma, po, 1.05 mg/kg, CDA-L group: healthy rats, ARE 300 mg/kg once a day for 7 days + DAPA single dose 1.05 mg/kg on day 7, n=6, mean ± SD
[9] = male, Sprague-Dawley, rat, plasma, po, CDA group: healthy rats, ARE 300 mg/kg intragastric once a day for 7 days + DAPA single dose 1.05 mg/kg on day 7, n = 6, mean ± SD

For CCOc1ccc(Cc2cc([C@@H]3O[C@H](CO)[C@@H](O)[C@H](O)[C@H]3O)ccc2Cl)cc1 [DAPA, Dapagliflozin], the “AUC(0-inf)” value [1] was 3868.26±344.05 h*(ng/mL), the “AUC(0-t)” value [1] was 3810.20±343.81 h*(ng/mL) and the CL [1] was 273.31±25.26 (mL/h)/kg. The V [1] was 1.42595 ± 0.16328 L/kg, the “decrease of MRT” value [2] was 25.11% and the “decrease of t max” value [2] was 55.91%. For the same compound, the “increase of C max” value [2] was 30.99%, the “AUC(0-inf)” value [3] was 3845.72±851.15 h*(ng/mL) and the “AUC(0-t)” value [3] was 3783.24±852.77 h*(ng/mL). The C max [3] was 504.33 ± 99.44 ng/mL, the CL [3] was 283.83±58.84 (mL/h)/kg and the V [3] was 1.5704 ± 0.40141 L/kg. For the same compound, the “AUC(0-inf)” value [4] was 3946.77±756.89 h*(ng/mL), the “AUC(0-t)” value [4] was 3868.01±745.36 h*(ng/mL) and the CL [4] was 273.49±46.98 (mL/h)/kg. The V [4] was 1.55445 ± 0.21969 L/kg, the “AUC(0-inf)” value [5] was 3845.72±851.15 h*(ng/mL) and the “AUC(0-t)” value [5] was 3783.24±852.77 h*(ng/mL). For the same compound, the CL [5] was 283.83±58.84 (mL/h)/kg, the Cmax [5] was 504.33 ± 99.44 ng/mL and the V [5] was 1.5704 ± 0.40141 L/kg. For the same compound, the “difference of t 1/2, AUC(0-t), AUC(0-inf), V and CL” value (between the CD group and the CDA group (healthy rats)) was “no significant difference”, the Tmax [6] was 5.67 ± 0.82 h and the half-life [6] was 3.61 ± 0.21 h. The Cmax (male, Sprague-Dawley, rat, plasma, po, 1.05 mg/kg, CD group: healthy rats, DAPA alone, single intragastric dose 1.05 mg/kg, n = 6, mean ± SD, read-out: C max) was 385 ± 46 ng/mL, the MRT last [6] was 6.89 ± 0.28 h and the Tmax [7] was 2.61 ± 0.9 h. For the same compound, the half-life [7] was 3.96 ± 0.17 h, the Cmax (male, Sprague-Dawley, rat, plasma, po, 1.05 mg/kg, CDA-H group: healthy rats, ARE 900 mg/kg once a day for 7 days + DAPA single dose 1.05 mg/kg on day 7, n=6, mean ± SD, read-out: Cmax) was 538 ± 123 ng/mL and the MRT last [7] was 5.04 ± 0.27 h. The Tmax [8] was 2.5 ± 1.22 h, the half-life [8] was 3.8 ± 0.22 h and the MRT last [8] was 5.16 ± 0.36 h. For the same compound, the Tmax [9] was 2.5 ± 1.22 h, the half-life [9] was 3.8 ± 0.22 h and the MRT last [9] was 5.16 ± 0.36 h.

From article PMC10597649, “Effect of Astragali radix extract on pharmacokinetic behavior of dapagliflozin in healthy and type 2 diabetic rats” (Frontiers in Pharmacology, 2023)
